Usually IC50 stands for the midpoint of a concentration-inhibition curve. Higher therefore signals weaker potency.

Converted amounts (≈) assume the structure as drawn. The source made the active and inactive calls. No cut-off for these calls is given here.

For one assay, the system named is Candida albicans. Briefly: Antifungal activity against Candida albicans. The class given is functional, organism-based.
The next assay has as its system Staphylococcus aureus. Briefly: Antibacterial activity against Staphylococcus aureus. Format: functional, organism-based.

The molecule `Clc1ccc(COC(Cn2ccnc2)c2ccc(Cl)cc2Cl)c(Cl)c1.O=[N+]([O-])O` (centres undefined) [MICONAZOLE NITRATE] came in with an IC50 with Candida albicans of less than 1.2 µg/mL.
As for `CCOc1ccc(C(=C2C=CC(=O)C=C2)c2c(-c3ccc(O)cc3)ccc(CO)c2C#Cc2ccc(O)cc2)cc1` [SELAGINELLIN D], half-maximal inhibition in the assay with Candida albicans (IC50) required 5.3 µg/mL (≈ 9.8 µM). Besides, in the assay on Staphylococcus aureus, the IC50 entry is “Not Active” and the MIC result was “inactive”.

Source of the values: ChEMBL document CHEMBL1156195, “Antimicrobial selaginellin derivatives from Selaginella pulvinata” (Bioorg Med Chem Lett, 2010).
